Reference: ChEMBL document CHEMBL1221213, “Biomimetic synthesis of the IDO inhibitors exiguamine A and B” (Nat Chem Biol, 2008)
pKi: −log10 of the molar value.

Target: Indoleamine 2,3-dioxygenase 1 (Homo sapiens, UniProt P14902)
Test: Inhibition of human recombinant indoleamine-2,3-dioxygenase

Sequence of Indoleamine 2,3-dioxygenase 1 (P14902 whole entry): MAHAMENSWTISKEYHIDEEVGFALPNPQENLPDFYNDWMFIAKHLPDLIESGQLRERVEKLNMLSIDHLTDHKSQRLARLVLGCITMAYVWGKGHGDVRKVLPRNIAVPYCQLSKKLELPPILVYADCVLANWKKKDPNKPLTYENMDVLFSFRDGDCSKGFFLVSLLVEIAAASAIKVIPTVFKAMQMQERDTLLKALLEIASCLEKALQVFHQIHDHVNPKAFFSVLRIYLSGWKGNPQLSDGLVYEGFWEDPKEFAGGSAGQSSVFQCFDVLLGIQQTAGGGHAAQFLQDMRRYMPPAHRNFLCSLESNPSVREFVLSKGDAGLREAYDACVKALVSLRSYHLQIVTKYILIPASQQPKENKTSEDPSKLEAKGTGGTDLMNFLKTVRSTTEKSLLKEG

SMILES	pKi
CN(C)CCc1ccc(O)c(O)c1C1=C(C2C(=O)N(C)C(=O)N2C)C(=O)c2c(CCN)c[nH]c2C1=O (configuration not stated)	7.10
CN1C(=O)N(C)[C@]2(Oc3c(O)cc4c(c3C3=C2C(=O)c2c(CCN)c[nH]c2C3=O)[C@H](O)C[N+]4(C)C)C1=O [EXIGUAMINE B]	7.10
